Measured values published in article PMC3763859 (ACS medicinal chemistry letters, 2013).

System: SK-BR-3 cells
Experiment: synergy studies with c-Src inhibitor 1 in SK-BR-3
Assay type: cell-based
Conditions: 2 μM 1, 10 nM panobinostat

In the case of `Cc1[nH]c2ccccc2c1CCNCc1ccc(/C=C/C(=O)NO)cc1` [panobinostat], the “synergy with c-Src inhibitor 1” value is reported as “highly synergistic”.
